Measurements reported in patent US5583115A, “Dialkyltiacumicin compounds” (Abbott Laboratories, priority 1995, dated 1996).
≈ marks a conversion by molar mass, not a printed value.

Legend:
[1] = tested on: E. coli; assay: MIC agar dilution, aerobic and facultative bacteria; type: cell-based
[2] = tested on: Bacteriodes fragilis; assay: MIC agar dilution, anaerobic bacteria; type: cell-based
[3] = tested on: B. vulgatus; assay: MIC agar dilution, anaerobic bacteria; type: cell-based
[4] = tested on: B. disiens; assay: MIC agar dilution, anaerobic bacteria; type: cell-based; conditions: Culture # 1763
[5] = tested on: B. thetaiotaomicron; assay: MIC agar dilution, anaerobic bacteria; type: cell-based
[6] = tested on: B. loescheii; assay: MIC agar dilution, anaerobic bacteria; type: cell-based; conditions: Culture # 1767
[7] = tested on: B. bivius; assay: MIC agar dilution, anaerobic bacteria; type: cell-based; conditions: Culture # 2483
[8] = tested on: Fusobacterium nucleatum; assay: MIC agar dilution, anaerobic bacteria; type: cell-based; conditions: Culture # 2478
[9] = tested on: Fusobacterium species; assay: MIC agar dilution, anaerobic bacteria; type: cell-based; conditions: Culture # 1770
[10] = tested on: Veillonella parvula; assay: MIC agar dilution, anaerobic bacteria; type: cell-based; conditions: Culture # 2479
[11] = tested on: Propionibacterium acnes; assay: MIC agar dilution, anaerobic bacteria; type: cell-based; conditions: Culture # 1775
[12] = tested on: Peptostreptococcus asaccharolyticus; assay: MIC agar dilution, anaerobic bacteria; type: cell-based; conditions: Culture # 1777
[13] = tested on: P. magnus; assay: MIC agar dilution, anaerobic bacteria; type: cell-based; conditions: Culture # 1778
[14] = tested on: P. species; assay: MIC agar dilution, anaerobic bacteria; type: cell-based; conditions: Culture # 1776
[15] = tested on: P. anaerobius; assay: MIC agar dilution, anaerobic bacteria; type: cell-based; conditions: Culture # 1780
[16] = tested on: Clostridium perfringens; assay: microbe, parasite or virus in culture; type: cell-based
[17] = tested on: C. ramosum; assay: MIC agar dilution, anaerobic bacteria; type: cell-based; conditions: Culture # 2482
[18] = tested on: C. difficile; assay: MIC agar dilution, anaerobic bacteria; type: cell-based
[19] = tested on: anaerobic pathogens, in particular Clostridium species; assay: In vitro activity against anaerobic pathogens, Wilkins-Chalgren agar; type: cell-based; conditions: MIC, Table 2
From the text: It has now been established that novel antimicrobial agents may be obtained by chemical modification of tiacumicins, which are antibiotics isolated from the fermentation broth and mycelium of Dactylosporangium aurantiacum subsp. hamdenensis subsp. nov. Tiacumicin antibiotics are described in U.S. Pat. No. 4,918,174 (issued Apr. 17, 1990 and incorporated herein by reference), and comprise the compounds tiacumicin A, tiacumicin B, tiacumicin C, tiacumicin D, tiacumicin E and tiacumicin F. The compounds of the present invention, which are derivatives of the above tiacumicins, are found to have in vitro activity against a variety of bacterial pathogens and in particular against Clostridium when evaluated in an assay utilizing Wilkins-Chalgren agar in anaerobic conditions. It is therefore expected that these compounds will be useful in the treatment of bacterial infections in mammals, and in particular in the treatment of certain instances of colitis.

[20] = tested on: Staphylococcus aureus; assay: MIC agar dilution, aerobic and facultative bacteria
[21] = tested on: S. epidermidis; assay: as above; conditions: Culture # 1666
[22] = tested on: Enterococcus faecium; assay: as above; conditions: Culture # 1668
[23] = tested on: Streptococcus bovis; assay: as above; conditions: Culture # 1699
[24] = tested on: S. pyogenes; assay: as above
[25] = tested on: Micrococcus luteus; assay: as above
[26] = tested on: Enterobacter aerogenes; assay: as above; conditions: Culture # 1677
[27] = tested on: Klebsiella pneumoniae; assay: as above; conditions: Culture # 2518
[28] = tested on: Providencia stuartii; assay: as above; conditions: Culture # 1831
[29] = tested on: Pseudomonas aeruginosa; assay: as above
[30] = tested on: Acinetobacter calcoaceticus; assay: as above; conditions: Culture # 1845
[31] = tested on: Candida albicans; assay: as above; conditions: Culture # 3622
[32] = tested on: Mycobacterium smegmatis; assay: as above; conditions: Culture # 5171
[33] = tested on: Nocardia asteroides; assay: as above; conditions: Culture # 5173

## CCc1c(Cl)c(OC)c(Cl)c(OC)c1C(=O)OC1C(C)OC(OCC2=CC=CCC(O)C(C)=CC(CC)C(OC3OC(C)(C)C(OC(=O)C(C)C)C(O)C3O)C(C)=CC(C)=CCC(C(C)O)OC2=O)C(OC)C1O (centres unmarked) [Example 2, 3"', 5"'-Di-O-methyltiacumicin B]
[1]; DC-2, Culture # 1674
  MIC: > 100 µg/mL
[1]; H560, Culture # 1675
  MIC: > 100 µg/mL
[1]; Juhl, Culture # 1673
  MIC: > 100 µg/mL
[1]; KNK437, Culture # 1676
  MIC: > 100 µg/mL
[1]; SS, Culture # 2489
  MIC: > 100 µg/mL
[2]; Culture # 1756, Wilkins-Chalgren agar, 37° C., 48 hours
  MIC: > 2 µg/mL
[2]; Culture # 1757
  MIC: > 2 µg/mL
[2]; Culture # 1758
  MIC: > 2 µg/mL
[2]; Culture # 1999
  MIC: > 2 µg/mL
[3]; Culture # 1762
  MIC: > 2 µg/mL
[3]; Culture # 2481
  MIC: > 2 µg/mL
[4]
  MIC: > 2 µg/mL
[5]; Culture # 1764
  MIC: > 2 µg/mL
[5]; Culture # 1765
  MIC: > 2 µg/mL
[5]; Culture # 1766
  MIC: > 2 µg/mL
[6]
  MIC: > 2 µg/mL
[7]
  MIC: > 2 µg/mL
[8]
  MIC: > 2 µg/mL
[9]
  MIC: > 2 µg/mL
[10]
  MIC: > 2 µg/mL
[11]
  MIC: > 2 µg/mL
[12]
  MIC: > 2 µg/mL
[13]
  MIC: > 2 µg/mL
[14]
  MIC: > 2 µg/mL
[15]
  MIC: > 2 µg/mL
[16]; Culture # 1771
  MIC: 0.06 µg/mL (≈ 0.0552 µM)
[16]; Culture # 1772
  MIC: 0.06 µg/mL (≈ 0.0552 µM)
[16]; Culture # 1773
  MIC: 0.06 µg/mL (≈ 0.0552 µM)
[17]
  MIC: > 2 µg/mL
[18]; Culture # 1496
  MIC: 0.25 µg/mL (≈ 0.23 µM)
[18]; Culture # 1497
  MIC: 0.5 µg/mL (≈ 0.46 µM)
[18]; Culture # 1774
  MIC: 0.25 µg/mL (≈ 0.23 µM)
[18]; Culture # 2025
  MIC: 0.5 µg/mL (≈ 0.46 µM)
[18]; Culture # 2480
  MIC: 0.25 µg/mL (≈ 0.23 µM)
[18]; Culture # 2528
  MIC: 0.5 µg/mL (≈ 0.46 µM)
[18]; Culture # 2529
  MIC: 0.5 µg/mL (≈ 0.46 µM)
[19]
  activity against anaerobic pathogens: substantial activity against anaerobic pathogens and in particular against Clostridium species
[20]; Culture # 1662, brain heart infusion agar, 37° C., 20 hours
  MIC: 100 µg/mL (≈ 92.1 µM)
[20]; Culture # 1664
  MIC: 50 µg/mL (≈ 46 µM)
[20]; Culture # 1690
  MIC: 100 µg/mL (≈ 92.1 µM)
[20]; Culture # 2124
  MIC: > 100 µg/mL
[20]; Culture # 2130
  MIC: > 100 µg/mL
[20]; Culture # 2498
  MIC: > 100 µg/mL
[20]; cipro res., Culture # 3384
  MIC: 100 µg/mL (≈ 92.1 µM)
[21]
  MIC: 50 µg/mL (≈ 46 µM)
[22]
  MIC: > 100 µg/mL
[23]
  MIC: > 100 µg/mL
[24]; Culture # 1671
  MIC: > 100 µg/mL
[24]; const., Culture # 1672
  MIC: 25 µg/mL (≈ 23 µM)
[24]; inducible, Culture # 2548
  MIC: 25 µg/mL (≈ 23 µM)
[25]; Culture # 2493
  MIC: 0.1 µg/mL (≈ 0.0921 µM)
[25]; Culture # 2517
  MIC: 0.1 µg/mL (≈ 0.0921 µM)
[26]
  MIC: > 100 µg/mL
[27]
  MIC: > 100 µg/mL
[28]
  MIC: > 100 µg/mL
[29]; Culture # 1679
  MIC: > 100 µg/mL
[29]; Culture # 1680
  MIC: > 100 µg/mL
[29]; Culture # 1681
  MIC: > 100 µg/mL
[29]; Culture # 1682
  MIC: 100 µg/mL (≈ 92.1 µM)
[29]; cipro R, Culture # 1919
  MIC: > 100 µg/mL
[29]; cipro R, Culture # 1920
  MIC: > 100 µg/mL
[30]
  MIC: > 100 µg/mL
[31]
  MIC: > 100 µg/mL
[32]
  MIC: 1.56 µg/mL (≈ 1.44 µM)
[33]
  MIC: 0.39 µg/mL (≈ 0.359 µM)
